Reference: US4035486A, “Medicament” (Centre d'Etudes Experimentales et Clinques de Physio …, priority 1974, dated 1977)

Experiments:
[1] = system: sections of the cerebral cortex of a rat stimulated by KCl; experiment: Action in vitro on consumption of oxygen, accumulation of lactic acid and consumption of glucose in rat cerebral cortex sections stimulated by KCl (Warburg technique, enzymatic determination); assay type: cell-based; settings: for Accumulation of lactic acid / Consumption of glucose / Consumption of oxygen: rat cerebral cortex sections stimulated by KCl, 1 hour at 37°, ACh 2.7.10^-10 M, insulin 66.10^-4 U/I
Source text: 1. The investigation, on sections of a rat's brain which have been stimulated by KCl, of the variations in the consumption of oxygen, the production of lactic acid and the consumption of glucose, by WARBURG's conventional technique, after which these sections are subjected to the action of guanosine, ACh or insulin or guanosine in association with ACh or insulin. I. Action in vitro of guanosine, alone or in association with acetylcholine or insulin, on the consumption of oxygen, the accumulation of lactic acid and the consumption of glucose in sections of the cerebral cortex of a rat which have been stimulated by KCl. The animals which are used are male Wistar Vag rats with an average weight of 225/250 grammes, and they have been subjected to standard laboratory regime. The sections of tissue, which weigh between 15 and 20 mg, were taken from the cerebral cortex of the rat and allowed to incubate for 1 hour at 37° after being placed in a flask containing the Krebs-Ringer phosphate buffer having a KCl concentration of 10 percent. The substrate comprises 15 μ moles of glucose. The guanosine, […], is added to the flask simultaneously with the glucose and the buffer, whereas the acetylcholine 2.7.10^^-10 M and the insulin (Endopancrine) 66.10^-^4 μ/liter are placed in the lateral paunch and put into contact with the section of tissue at a time 0. The total volume of the mixture is 3 mls. The consumption of oxygen is measured according to Warburg's conventional method after a 1-hour period of incubation at 37°. It is expressed in μ moles of oxygen per hour and per gramme of tissue. The lactic acid and glucose are determined in the deproteinised incubation medium by an enzymatic method. The results are expressed in μ moles/h/g of tissue.

[2] = system: glycogen of the mouse brain; experiment: Cerebral glycogen in a mouse after injection of guanosine, insulin or both; assay type: in vivo; settings: for glycogen of the mouse brain: 30 minutes before killing; for level of cerebral glycogen compared with the controls (in words): mouse, guanosine 100 mg/kg or 200 mg/kg, insulin 0.5 I.U./20 g, or insulin with guanosine 200 mg/kg
Procedure: 2. The investigation of the content of glycogen in the brain of a mouse under the action of quanosine or insulin or these two agents in association. The animals which are used are male mice with an average weight of 20-25 g. Five groups of animals were studied which had received respectively: 1st group: a isotonic salt solution by intraperitoneal injection. 2nd group: a dose of 100 mg/kg of guanosine by intraperitoneal injection. 3rd group: a dose of 200 mg/kg of guanosine by intraperitoneal injection. 4th group: a dose of 0.5 μI/20 g per mouse of insulin by subcutaneous injection. For these four groups the injection was made 30 minutes before the animals were killed. 5th group: an intraperitoneal injection of guanosine at a dose of 200 mg/kg 30 minutes before a sub-cutaneous injection of insulin at a dose of 0.5 μI/20 g per mouse. The animal is killed 30 minutes after the second injection by being totally immersed in liquid nitrogen. The brains are removed whilst they are still deep-frozen. The isolated glycogen is hydrolyzed by the enzyme amylo-α-1,4 -α-1,6 glucosidase which releases the glucose by hydrolysis of the α-(1 → 6) and α-(→ 4) bonds. The glucose is then converted, in a single stage, to 6-phosphogluconate by the enzymes : hexokinase and glucose-6-phosphate dehydrogenase. The formation of the nicotinamide adenine dinucleotide phosphate is then measured florometrically (NAHORSKI and ROGERS, Analyt. Biochem. 1972, 49, 492-497).

[3] = system: glycemia; experiment: Action of guanosine upon glycemia in the rabbit after intravenous injection; assay type: in vivo; settings: insulin 0.5 I.U. per kg alone or with guanosine 100 mg per kg, followed to 240 min
Procedure: 3. The study of the variations in glycemia in a rabbit after an injection of either insulin or insulin in association with guanosine.
The animals which are used are male rabbits with a weight of 2.200 kg to 2.500 kg.
Four groups of animals were studied which had received by intravenous injection, respectively, in a volume of 10 ml:
1st group: an isotonic solution of sodium chloride.
2nd group: guanosine at the rate of 100 mg per kg of rabbit.
3rd group: insulin at the rate of 0.5 I.U. per kg of rabbit.
4th group: guanosine at the rate of 100 mg per kg of rabbit and insulin at the rate of 0.5 I.U. per kg of rabbit.
A catheter is inserted into the femoral artery, its distal end being joined to the skin in the caudal region, such that the blood may be removed without harming the rabbit.
The drugs were injected via a vein in the ear. The guanosine was dissolved in an isotonic sodium chloride solution to which 1.5% NaOH was added until the guanosine has been dissolved. The pH of the final solution was 9.
After the inspection the rabbits were given 30 minutes rest.
Arterial blood was removed on six occasions at the times t = 0 min; t = 15 min; t = 30 min; t = 60 min; t = 120 min; t = 240 min.
The glycemia values were determined by the enzymatic method of BOEHRINGER.

| Molecule | increase in the consumption of glucose ([1]; insulin 66.10^-4 μ/liter, alone or with guanosine, rat cerebral cortex sections) [%] | Accumulation of lactic acid ([1]; guanosine 1.66.10^-4 M) [µmol/h/g] | Consumption of glucose ([1]; guanosine 1.66.10^-4 M) [µmol/h/g] | Consumption of oxygen ([1]; guanosine 1.66.10^-4 M) [µmol/h/g] | glycogen of the mouse brain ([2]; insulin 0.5 I.U./20 g mouse subcutaneous) | level of cerebral glycogen compared with the controls (in words) [2] | return of the glycemia to its original level (in words) [3] | effect upon the accumulation of lactic acid (in words) ([1]; rat cerebral cortex sections, guanosine 1.66.10^-4 M) | effect upon the consumption of glucose (in words) ([1]; rat cerebral cortex sections, guanosine 1.66.10^-4 M, acetylcholine 2.7.10^-10 M) | effect upon the consumption of oxygen (in words) ([1]; rat cerebral cortex sections, guanosine 1.66.10^-4 M, acetylcholine 2.7.10^-10 M, insulin 66.10^-4 μ/liter) | glycogen of the mouse brain ([2]; guanosine 100 mg/kg intraperitoneal) | glycogen of the mouse brain ([2]; guanosine 200 mg/kg intraperitoneal) | increase in the consumption of oxygen ([1]; acetylcholine 2.7.10^-10 M, alone or with guanosine, rat cerebral cortex sections) [%] |
| --- | --- | --- | --- | --- | --- | --- | --- | --- | --- | --- | --- | --- | --- |
| insulin | 50 | 84.6 ± 5 | 168 ± 17 | 91.6 ± 5.3 | 182 ± 10 μ g of glucose equivalents per | very much higher than that of the controls | quickly returns to its original level |  |  |  |  |  |  |
| Nc1nc2c(ncn2[C@@H]2O[C@H](CO)[C@@H](O)[C@H]2O)c(=O)[nH]1 [Guanosine, guanosine] |  | 88.2 ± 5.4 | 99.3 ± 9.1 | 93 ± 6 |  | do not show any significant differences |  | has no effect | has no effect | has no effect | 151 ± 7 μ g of glucose equivalents per | 159 ± 8 μ g of glucose equivalents per |  |
| CC(=O)OCC[N+](C)(C)C [ACh, acetylcholine, reference compound] |  | 98.8 ± 3.7 | 146 ± 13.9 | 134 ± 7.2 |  |  |  |  |  |  |  |  | 25 |
